# Laboratory results taken from US11242335B2, “Fluorine-substituted indazole compounds and uses thereof” (SUNSHINE LAKE PHARMA CO., LTD., priority 2017, dated 2022).
# Target: T1, soluble guanylate cyclase (sGC) expressed by CHO-K1-Rat sGC monoclonal cell line (Rattus norvegicus, UniProt P19686+P20595)
# T1 construct: expressed in transfected cells; host or cells: CHO-K1
# T1 sequence (P19686 1-690): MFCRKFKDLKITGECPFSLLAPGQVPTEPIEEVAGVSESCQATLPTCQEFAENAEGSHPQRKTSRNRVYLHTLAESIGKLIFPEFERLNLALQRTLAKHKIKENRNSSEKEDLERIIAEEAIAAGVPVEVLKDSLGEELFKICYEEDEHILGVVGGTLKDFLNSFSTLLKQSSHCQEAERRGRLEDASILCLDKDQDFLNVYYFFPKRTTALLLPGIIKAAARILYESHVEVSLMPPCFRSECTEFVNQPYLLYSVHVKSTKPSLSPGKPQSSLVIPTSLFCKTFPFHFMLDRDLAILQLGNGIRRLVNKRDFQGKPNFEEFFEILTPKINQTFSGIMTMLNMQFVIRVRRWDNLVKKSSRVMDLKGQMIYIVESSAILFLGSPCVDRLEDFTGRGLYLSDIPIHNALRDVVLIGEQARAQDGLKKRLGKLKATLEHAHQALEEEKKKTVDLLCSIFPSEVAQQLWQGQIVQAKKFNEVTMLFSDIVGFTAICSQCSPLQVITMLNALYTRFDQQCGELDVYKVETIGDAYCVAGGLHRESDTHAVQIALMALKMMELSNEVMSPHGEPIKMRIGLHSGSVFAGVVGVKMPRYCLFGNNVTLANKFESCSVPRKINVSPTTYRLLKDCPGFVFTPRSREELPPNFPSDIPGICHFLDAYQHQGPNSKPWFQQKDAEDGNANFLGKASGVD
# T1 sequence (P20595 1-619): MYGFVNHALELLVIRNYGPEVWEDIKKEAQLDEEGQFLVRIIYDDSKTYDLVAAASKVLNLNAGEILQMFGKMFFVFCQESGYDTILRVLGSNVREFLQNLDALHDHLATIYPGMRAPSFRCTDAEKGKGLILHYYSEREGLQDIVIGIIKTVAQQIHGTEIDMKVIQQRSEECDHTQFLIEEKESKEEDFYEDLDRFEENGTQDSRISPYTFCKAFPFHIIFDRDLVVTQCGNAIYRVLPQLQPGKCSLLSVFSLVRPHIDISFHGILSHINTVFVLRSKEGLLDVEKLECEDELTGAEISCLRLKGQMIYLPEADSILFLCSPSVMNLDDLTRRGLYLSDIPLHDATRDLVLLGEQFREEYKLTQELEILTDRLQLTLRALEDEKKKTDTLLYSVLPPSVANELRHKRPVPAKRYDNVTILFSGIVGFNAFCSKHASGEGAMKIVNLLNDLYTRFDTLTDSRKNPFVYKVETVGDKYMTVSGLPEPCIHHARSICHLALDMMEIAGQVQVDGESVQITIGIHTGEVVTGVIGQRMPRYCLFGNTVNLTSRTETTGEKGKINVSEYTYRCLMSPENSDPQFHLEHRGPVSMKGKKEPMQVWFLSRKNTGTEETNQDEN
# Assay: Effect on recombinant guanylate cyclase reporter cell line (CHO-K1-Rat sGC, Cisbio cGMP HTRF)
# Type: cell-based
# Conditions: activating soluble guanylate cyclase
# Description: Transfection of Soluble Guanylate Cyclase (sGC) gene into CHO-K1 cells and selection of cells with stably and highly expressed sGC: Rat sGCα1 and Rat sGCβ1 Genes were synthesized, and then pcDNA3.1(+)-rat sGCα1 and pcDNA3.1/Hygro (+)-rat sGCβ1 plasmid were constructed; the plasmid was co-transfected into CHO-K1 cells, and a positive clone cell line stably expressing CHO-K1-Rat sGC was selected using the Cisbio cGMP HTRF assay kit.
# The activity of the compound on the CHO-K1-Rat sGC monoclonal cell line was determined: The CHO-K1-Rat sGC monoclonal cell line was cultured, and used for test operation at degree of fusion of about 70% to 90%. The cells were resuspended in complete medium after TrypLE digestion; the cells were inoculated in a 384-well (low volume tissues culture treated) cell culture plate at a seeding density of 7500/well in 25 μL of complete medium and incubated at 37° C. in 5% CO2 atmosphere for 20 hours; the test compounds were dissolved and dilute with DMSO to give 10 concentration gradients (2× working concentration); 384-well cell culture plates were centrifugated (200 g) for 3 seconds by inversion at RT, medium was removed; The test compounds in each different concentration gradient and corresponding reagent were added into each cell well according to the detection process of Cisbio cGMP HTRF assay kit. The data were collected with Envision HTRF detector and the EC50 value of each compound in activating soluble guanylate cyclase was calculated.
row,SMILES,EC50
1,"Nc1nc(-c2nn(Cc3ccccc3F)c3cc(F)ccc23)nc(N)c1NC1CCOC1 (stereo not drawn) [Example 9, 2-(6-fluoro-1-(2-fluorobenzyl)-1H-indazol-3-yl)-N^5-(tetrahydrofuran-3-yl) pyrimidine-4,5,6-triamine]",680 nM
2,"Nc1nc(-c2nn(Cc3ccccc3F)c3c(F)cccc23)nc(N)c1NC1CCOC1 (stereo not drawn) [Example 12, 2-(7-fluoro-1-(2-fluorobenzyl)-1H-indazol-3-yl)-N^5-(tetrahydrofuran-3-yl)pyrimidine-4,5,6-triamine]",120 nM
3,"Nc1nc(-c2nn(Cc3ccccc3F)c3c(F)cccc23)nc(N)c1N1CCOCC1 [Example 14, 2-(7-fluoro-1-(2-fluorobenzyl)-1H-indazol-3-yl)-5-morpholinopyrimidine-4,6-diamine]",62 nM
4,"Nc1nc(-c2nn(Cc3ccccc3F)c3c(F)cccc23)nc(N)c1NC(=O)C1CCCO1 (stereo not drawn) [Example 16, N-(4,6-diamino-2-(7-fluoro-1-(2-fluorobenzyl)-1H-indazol-3-yl)pyrimidin-5-yl)tetrahydrofuran-2-carboxamide]",690 nM
5,"Nc1nc(-c2nn(Cc3ccccc3F)c3c(F)cccc23)nc(N)c1NC(=O)C1CCCCO1 (stereo not drawn) [Example 17, N-(4,6-diamino-2-(7-fluoro-1-(2-fluorobenzyl)-1H-indazol-3-yl)pyrimidin-5-yl)tetrahydro-2H-pyran-2-carboxamide]",420 nM
6,"Oc1nc(-c2nn(Cc3ccccc3F)c3c(F)cccc23)ncc1F [Example 25, 5-fluoro-2-(7-fluoro-1-(2-fluorobenzyl)-1H-indazol-3-yl)pyrimidin-4-ol]",860 nM
7,"CC(C)(O)CNc1c(N)nc(-c2nn(Cc3ccccc3F)c3c(F)cccc23)nc1N [Example 26, 1-((4,6-diamino-2-(7-fluoro-1-(2-fluorobenzyl)-1H-indazol-3-yl)pyrimidin-5-yl)amino)-2-methylpropan-2-ol]",100 nM
8,"CC(Nc1c(N)nc(-c2nn(Cc3ccccc3F)c3c(F)cccc23)nc1N)C1CCOCC1 (stereo not drawn) [Example 28, 2-(7-fluoro-1-(2-fluorobenzyl)-1H-indazol-3-yl)-N^5-(1-(tetrahydro-2H-pyran-4-yl)ethyl)pyrimidine-4,5,6-triamine]",94 nM
9,"Nc1nc(-c2nn(Cc3ccccc3F)c3c(F)cccc23)ncc1C(=O)O [Example 30, 4-amino-2-(7-fluoro-1-(2-fluorobenzyl)-1H-indazol-3-yl)pyrimidine-5-carboxylic acid]",820 nM
10,"Nc1nc(-c2nn(Cc3ccccc3F)c3c(F)cccc23)ncc1C(=O)NC1CC1 [Example 31, 4-amino-N-cyclopropyl-2-(7-fluoro-1-(2-fluorobenzyl)-1H-indazol-3-yl) pyrimidine-5-carboxamide]",35 nM
11,"CNC(=O)c1cnc(-c2nn(Cc3ccccc3F)c3c(F)cccc23)nc1N [Example 32, 4-amino-2-(7-fluoro-1-(2-fluorobenzyl)-1H-indazol-3-yl)-N-methyl pyrimidine-5-carboxamide]",89 nM
12,"COC(=O)N(C)c1c(N)nc(-c2nn(Cc3cncnc3)c3c(F)cccc23)nc1N [Example 34, methyl (4,6-diamino-2-(7-fluoro-1-(pyrimidin-5-ylmethyl)-1H-indazol-3-yl)pyrimidin-5-yl)(methyl)carbamate]",810 nM
13,"Nc1nc(-c2nn(Cc3ccccc3F)c3c(F)cccc23)nc(N)c1C(=O)O [Example 42, 4,6-diamino-2-(7-fluoro-1-(2-fluorobenzyl)-1H-indazol-3-yl)pyrimidine-5-carboxylic acid]",760 nM
14,"Nc1nc(-c2nn(Cc3ccccc3F)c3c(F)cccc23)nc(N)c1C(=O)NC1CC1 [Example 44, 4,6-diamino-N-cyclopropyl-2-(7-fluoro-1-(2-fluorobenzyl)-1H-indazol-3-yl) pyrimidine-5-carboxamide]",340 nM
15,"CN(C)C(=O)c1cnc(-c2nn(Cc3ccccc3F)c3c(F)cccc23)nc1N [Example 45, 4-amino-2-(7-fluoro-1-(2-fluorobenzyl)-1H-indazol-3-yl)-N,N-dimethyl pyrimidine-5-carboxamide]",160 nM
16,"Nc1nc(-c2nn(Cc3ccccc3F)c3c(F)cccc23)ncc1C(=O)N1CCOCC1 [Example 46, (4-amino-2-(7-fluoro-1-(2-fluorobenzyl)-1H-indazol-3-yl)pyrimidin-5-yl) (morpholino)methanone]",200 nM
17,"Nc1nc(-c2nn(Cc3ccccc3F)c3c(F)cccc23)ncc1C(=O)N1CCCC1 [Example 47, (4-amino-2-(7-fluoro-1-(2-fluorobenzyl)-1H-indazol-3-yl)pyrimidin-5-yl) (pyrrolidin-1-yl)methanone]",120 nM
18,"Nc1nc(-c2nn(Cc3ccccc3F)c3c(F)cccc23)ncc1C(=O)NCCO [Example 49, 4-amino-2-(7-fluoro-1-(2-fluorobenzyl)-1H-indazol-3-yl)-N-(2-hydroxyethyl)pyrimidine-5-carboxamide]",270 nM
19,"Nc1nc(-c2nn(Cc3ccccc3F)c3c(F)cccc23)ncc1C(=O)N1CCS(=O)(=O)CC1 [Example 51, (4-amino-2-(7-fluoro-1-(2-fluorobenzyl)-1H-indazol-3-yl)pyrimidin-5-yl) (1,1-dioxidothiomorpholino)methanone]",420 nM
20,"Nc1nc(-c2nn(Cc3ccccc3F)c3c(F)cccc23)ncc1C(=O)N1CCC(F)(F)CC1 [Example 52, (4-amino-2-(7-fluoro-1-(2-fluorobenzyl)-1H-indazol-3-yl)pyrimidin-5-yl) (4,4-difluoropiperidin-1-yl)methanone]",110 nM
21,"CN1CCN(C(=O)c2cnc(-c3nn(Cc4ccccc4F)c4c(F)cccc34)nc2N)CC1 [Example 53, (4-amino-2-(7-fluoro-1-(2-fluorobenzyl)-1H-indazol-3-yl)pyrimidin-5-yl) (4-methylpiperazin-1-yl)methanone]",390 nM
22,"Nc1nc(-c2nn(Cc3ccccc3F)c3c(F)cccc23)ncc1C(=O)N1CC(O)C1 [Example 54, (4-amino-2-(7-fluoro-1-(2-fluorobenzyl)-1H-indazol-3-yl)pyrimidin-5-yl) (3-hydroxyazetidin-1-yl)methanone]",140 nM
23,"CNC(=O)c1cnc(-c2nn(Cc3ccccc3F)c3c(F)cccc23)nc1 [Example 56, 2-(7-fluoro-1-(2-fluorobenzyl)-1H-indazol-3-yl)-N-methylpyrimidine-5-carboxamide]",340 nM
24,"O=C(NC1CC1)c1cnc(-c2nn(Cc3ccccc3F)c3c(F)cccc23)nc1 [Example 57, N-cyclopropyl-2-(7-fluoro-1-(2-fluorobenzyl)-1H-indazol-3-yl)pyrimidine-5-carboxamide]",79 nM
25,"OCCCNc1nc(-c2nn(Cc3ccccc3F)c3c(F)cccc23)ncc1F [Example 59, 3-((5-fluoro-2-(7-fluoro-1-(2-fluorobenzyl)-1H-indazol-3-yl)pyrimidin-4-yl)amino)propan-1-ol]",58 nM
26,"OCCNc1nc(-c2nn(Cc3ccccc3F)c3c(F)cccc23)ncc1F [Example 60, 2-((5-fluoro-2-(7-fluoro-1-(2-fluorobenzyl)-1H-indazol-3-yl)pyrimidin-4-yl)amino)ethanol]",120 nM
27,"OCCN1CCN(c2nc(-c3nn(Cc4ccccc4F)c4c(F)cccc34)ncc2F)CC1 [Example 62, 2-(4-(5-fluoro-2-(7-fluoro-1-(2-fluorobenzyl)-1H-indazol-3-yl)pyrimidin-4-yl)piperazin-1-yl)ethanol]",75 nM
